Read-outs that look alike come from different tables or passages of the source.
Assays:
[1] = target: T1, Actinomadura R39 DD-peptidase (Actinomadura sp., UniProt P39045); assay type: biochemical
B. subtilis PBP4a = B. subtilis PBP4a (Bacillus subtilis, UniProt P39844); test: Inhibition of B. subtilis PBP4a, competition with substrate 14; assay type: biochemical
[2] = Hydration equilibrium of the carbonyl compounds in aqueous solution; assay type: physicochemical; details: from 1H NMR spectra
[3] = target: T1, Actinomadura R39 DD-peptidase; assay type: biochemical; remark: listed apart in the source
[4] = literature estimate; cited from earlier work
[5] = cited from earlier work

T1 sequence (P39045 50-538): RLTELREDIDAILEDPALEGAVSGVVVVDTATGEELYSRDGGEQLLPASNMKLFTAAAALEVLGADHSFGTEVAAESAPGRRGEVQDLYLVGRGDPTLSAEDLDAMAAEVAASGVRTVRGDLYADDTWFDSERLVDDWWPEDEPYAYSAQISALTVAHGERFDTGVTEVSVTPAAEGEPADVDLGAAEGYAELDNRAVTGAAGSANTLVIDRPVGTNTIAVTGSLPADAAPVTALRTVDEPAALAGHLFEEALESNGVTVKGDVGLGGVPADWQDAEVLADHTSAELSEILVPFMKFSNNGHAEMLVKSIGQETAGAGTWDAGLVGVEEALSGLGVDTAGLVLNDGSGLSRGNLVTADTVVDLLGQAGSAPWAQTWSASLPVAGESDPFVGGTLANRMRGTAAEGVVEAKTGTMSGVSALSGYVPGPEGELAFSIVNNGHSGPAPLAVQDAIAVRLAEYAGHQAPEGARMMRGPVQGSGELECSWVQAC

## C[C@H](C=O)NC(=O)CCCC[C@@H](N)C(=O)O [Compound 11]
[1]
  Time dependence of inhibition, R39 DD-peptidase: No time dependence
B. subtilis PBP4a
  Time dependence of inhibition, PBP4a: No time dependence
[2]
  KH (hydration equilibrium constant [IOH2]/[I]): 30

## CC(NC(=O)CCCC[C@@H](N)C(=O)O)C(=O)C(F)(F)F (stereo partly drawn) [Compound 12, D-α-Aminopimelyl-(1,1,1-trifluoro-3-amino)butan-2-one]
[3]
  Ki: 170 nM
[1]
  Ki: 370 nM
  Time dependence of inhibition, R39 DD-peptidase: No time dependence
B. subtilis PBP4a
  Ki: 13500 nM
  Time dependence of inhibition, PBP4a: No time dependence

## C[C@@H](SC(=O)CNC(=O)Cc1ccccc1)C(=O)O [Compound 14, (Phenylacetyl)glycyl-D-thiolactate, reference compound]
B. subtilis PBP4a; read-out: Km of the substrate, PBP4a, 20 mM MOPS pH 7.50, 25 °C
  Km: 440 ± 80 µM

## CC(=O)C(F)(F)F [trifluoroacetone]
[4]
  KH, lower limit estimate: ≥ 35

## OCC(F)(F)F [trifluoroethanol]
[5]
  pKa: 12.4
